Results on 80 compounds are retold here after article PMC12040169 (PLOS Biology, 2025).

The structures appear in SMILES notation.

This series in a line: in vitro. Conditions: human, hela cells, % viability.
Take `CN(C)C(=O)c1ccc(-c2ccc3c(c2)COC(C2CCN(C(=O)CC4CCCCC4)CC2)O3)cc1` (centres unmarked) [CBK149763]: the viability (as a rule, a read-out of living cells in per cent, often relative to untreated cells) at 28.5 h, 10 µM is 114%. Regarding `COc1cccc2cc(C(=O)NCCCN3CCN(C)CC3)oc12` [CBK149788], the viability at 28.5 h, 10 µM amounted to 101%. For `COc1cccc2cc(C(=O)NCc3c(F)cccc3F)oc12` [CBK149794] the value was 65%. Regarding `COc1cccc2cc(C(=O)NCc3ccc(Cl)c(Cl)c3)oc12` [CBK149795], the viability at 28.5 h, 10 µM was 85.2%. For the compound `COc1cccc2cc(C(=O)NCc3ccc4c(c3)OCO4)oc12` [CBK149797], the viability at 28.5 h, 10 µM amounted to 90.9%. As to `COc1cccc2cc(C(=O)NCCc3ccc(O)cc3)oc12` [CBK149802], the viability at 28.5 h, 10 µM is 93.9%. For `COc1cccc2cc(C(=O)NCCN3CCOCC3)oc12` [CBK149807] the value was 101%. Under `COc1ccc(C2(C(=O)NCCN3CCCC3)CC2)cc1` [CBK149824] stands 95.6%; under `COc1ccc(C2(C(=O)NCc3c(F)cccc3F)CC2)cc1` [CBK149826], 108%. For `COc1ccc(C2(C(=O)NCc3ccc4c(c3)OCO4)CC2)cc1` [CBK149829] the value was 103%. As to `COc1ccc(C2(C(=O)NCc3cnc(C)cn3)CC2)cc1` [CBK149830], the viability at 28.5 h, 10 µM turned out to be 98.5%. For `COc1ccc(C2(C(=O)NCCc3c[nH]cn3)CC2)cc1` [CBK149834] the value was 97.8%; for `COc1ccc(C2(C(=O)N3CCN(C)CC3)CC2)cc1` [CBK149837], 86.3%. Consider `COc1ccc(C2(C(=O)N[C@H]3CC[C@H](O)CC3)CC2)cc1` [CBK149840], for which the viability at 28.5 h, 10 µM turned out to be 111%. For `O=C(Nc1cccc(C(F)(F)F)c1)N1CCC(n2c(=O)[nH]c3ccccc32)CC1` [CBK149845] the value was 84.6%; for `O=C(Nc1cccc2ccccc12)N1CCC(n2c(=O)[nH]c3ccccc32)CC1` [CBK149858], 85%; for `O=C(Oc1ccccc1)N1CCC(n2c(=O)[nH]c3ccccc32)CC1` [CBK149865], 89%.

For `O=C(Nc1sc2c(c1C(=O)O)CCC2)c1ccco1` [CBK152436], the viability at 28.5 h, 10 µM came to 101%.

As to `O=C(Nc1ccsc1C(=O)O)c1ccccc1Cl` [CBK152440], the viability at 28.5 h, 10 µM was 98.4%. Take `CNC(=O)C1CCN(Cc2ccc(-c3nnn(CC(=O)NCc4ccc(C)cc4)n3)cc2)CC1` [CBK153195T]: the viability at 28.5 h, 10 µM stood at 96.1%.

Take `O=C(NCc1cccnc1)c1ccc(N2CCN(C(=O)c3ccccc3C(F)(F)F)CC2)nn1` [CBK153215]: the viability at 28.5 h, 10 µM came to 72.3%.

For `O=C(NCCN1CCCC1)c1ccc(N2CCN(C(=O)c3ccccc3C(F)(F)F)CC2)nn1` [CBK153217], the viability at 28.5 h, 10 µM stood at 105%. Under `O=C(NCc1cccs1)c1ccc(N2CCN(C(=O)c3ccccc3C(F)(F)F)CC2)nn1` [CBK153218] stands 87.6%; under `CC(C)CCNC(=O)c1ccc(N2CCN(C(=O)c3ccccc3C(F)(F)F)CC2)nn1` [CBK153222], 114%. Under `O=C(c1cscn1)N1CCC2(CCCNC2)C1` (centres unmarked) [CBK153230C] stands 97%; under `Cc1cn(CC(=O)N2CCC3(CCCNC3)C2)c(=O)[nH]c1=O` (centres unmarked) [CBK153231C], 95.9%; under `O=C(c1ccco1)N1CCC2(CCCNC2)C1` (centres unmarked) [CBK153233C], 93.8%. Under `O=C(CC1CC1)Nc1snnc1-c1ccc(Cl)cc1` [CBK153239] stands 97%. Turning to `O=C(Nc1snnc1-c1ccc(Cl)cc1)c1ccco1` [CBK153242], the viability at 28.5 h, 10 µM was found to be 102%.

In the case of `O=C(Cc1ccsc1)Nc1snnc1-c1ccc(Cl)cc1` [CBK153243], the viability at 28.5 h, 10 µM came out at 94.5%. Under `O=C(Nc1snnc1-c1ccc(Cl)cc1)c1cccc(C(F)(F)F)c1` [CBK153246] stands 72.5%. As to `CCc1c(C)nc2ccccc2c1SCC(=O)O` [CBK153279], the viability at 28.5 h, 10 µM was 83.9%. For `Cc1cc(CNC(=O)C2=CC(=O)CC(C)(C)O2)no1` [CBK153281] the value was 104%; for `Cc1cc(Cl)ccc1CNC(=O)C1=CC(=O)CC(C)(C)O1` [CBK153282], 97.5%. For `CC1(C)CC(=O)C=C(C(=O)NCc2ccc3c(c2)OCO3)O1` [CBK153290] the value was 98.3%. Under `CN(C)CC(C)(C)CNC(=O)C1=CC(=O)CC(C)(C)O1` [CBK153291] stands 103%; under `CC1(C)CC(=O)C=C(C(=O)NCc2cccs2)O1` [CBK153292], 97.5%.

On to `O=C(NCCN1CCCC1)c1ccc2nc[nH]c2c1` [CBK153311], for which the viability at 28.5 h, 10 µM turned out to be 86%.

Regarding `Cc1cnc(CNC(=O)c2ccc3nc[nH]c3c2)cn1` [CBK153318], the viability at 28.5 h, 10 µM amounted to 88.4%. For `O=C(NCCc1ccc(O)cc1)c1ccc2nc[nH]c2c1` [CBK153323] the value was 106%; for `N#Cc1ccc(CNC(=O)c2ccc3nc[nH]c3c2)cc1` [CBK153332], 95.1%. In the case of `CCOC(=O)CCSc1c(CC)c(C)nc2ccccc12` [CBK153457T], the viability at 28.5 h, 10 µM was 93.5%.

Take `O=S(=O)(Nc1ccc2[nH]ccc2c1)c1ccc(Br)cc1F` [CBK153510]: the viability at 28.5 h, 10 µM turned out to be 88.9%.

With `O=S(=O)(Cc1ccc(Cl)cc1)Nc1cccc2[nH]ccc12` [CBK153531], the viability at 28.5 h, 10 µM came to 99.5%. Under `O=S(=O)(Nc1cccc2[nH]ccc12)c1ccc(F)cc1F` [CBK153546] stands 62.2%. Consider `O=S(=O)(Nc1cccc2[nH]ccc12)c1ccc(Br)cc1F` [CBK153547], for which the viability at 28.5 h, 10 µM was found to be 80.6%. Under `N#CCCCN1CCC(Oc2nccnc2OCc2cccc(Br)c2)CC1` [CBK153631] stands 99.1%; under `N#CCCCN1CCC(Oc2nccnc2OCc2cc(Cl)cc(Cl)c2)CC1` [CBK153634], 93.9%. In the case of `N#CCCCN1CCC(Oc2nccnc2OCc2cccc(Cl)c2)CC1` [CBK153642], the viability at 28.5 h, 10 µM amounted to 90.6%. Under `N#CCCCN1CCC(Oc2nccnc2OCc2ccc(F)cc2)CC1` [CBK153643] stands 115%; under `N#CCCCN1CCC(Oc2nccnc2OCc2ccc(Br)cc2F)CC1` [CBK153647], 94.7%.

With `Cc1cccc(C)c1N(C1CCNCC1)S(=O)(=O)c1ccc2c(c1)CCO2` [CBK153668T], the viability at 28.5 h, 10 µM came out at 99.1%. In the case of `Cc1ccc(-c2oncc2C(=O)NCc2cccs2)cc1` [CBK153679], the viability at 28.5 h, 10 µM is 95.7%. For `CCN(CC)C(=O)c1cnoc1-c1ccc(Br)cc1` [CBK153725] the value was 94.4%. For `COc1ccc(CCNC(=O)c2cnoc2-c2ccc(C)cc2)cc1` [CBK153731] the value was 119%; for `CS(=O)(=O)c1ccc(Cn2ccnc(N3CCN(C(=O)C4CCCCC4)CC3)c2=O)cc1` [CBK153771], 90.3%. For `O=c1cc(CN2CCC(Oc3nccnc3OCc3ccc(Cl)c(Cl)c3)CC2)[nH]c(=O)[nH]1` [CBK153784] the value was 96.6%.

On to `CC(C)NC(=O)CN1CCC(Oc2nccnc2OCc2ccc(Cl)c(Cl)c2)CC1` [CBK153791], for which the viability at 28.5 h, 10 µM was 92.2%. Under `O=C(c1cnoc1-c1ccc([N+](=O)[O-])cc1)N1CCCC1` [CBK153846] stands 107%; under `CCc1ccc(CNC(=O)Cn2nnnc2-c2ccc(CN3CCC(C)CC3)cn2)cc1` [CBK153930C], 85.6%; under `O=S(=O)(Nc1ccc(-c2nnn[nH]2)cc1)c1c(F)cccc1F` [CBK154734], 92.2%. For `CCNC(=S)N1CCN(C(=O)c2cccc(OC)c2)CC1` [CBK154778] the value was 97.3%. For `CCOC(=O)C1CCCN(S(=O)(=O)c2sc3ccc(Cl)cc3c2C)C1` (centres unmarked) [CBK154797] the value was 97.2%. Regarding `Clc1cncc(-c2cc3ccccc3[nH]2)n1` [CBK154865], the viability at 28.5 h, 10 µM turned out to be 101%. With `O=S(=O)(c1ccccc1)c1nc(N2CCNCC2)cn2ccnc12` [CBK154875T], the viability at 28.5 h, 10 µM came to 94.7%. Regarding `COc1cc(CNC(=O)c2cnoc2-c2ccc(Br)cc2)cc(OC)c1OC` [CBK154893], the viability at 28.5 h, 10 µM was determined as 110%. For `Cc1ccc(CNC(=O)c2cnoc2-c2ccc(Br)cc2)cc1F` [CBK154896] the value was 93.8%; for `Cc1ccc(-c2oncc2C(=O)NCc2ccc(S(N)(=O)=O)cc2)cc1` [CBK154912], 102%. Under `O=C(NC1CC1)c1cnoc1-c1ccccc1` [CBK154935] stands 106%.

Consider `O=C(NCc1ccc(Cl)c(Cl)c1)c1cnoc1-c1ccccc1Cl` [CBK154942], for which the viability at 28.5 h, 10 µM amounted to 98.4%. Regarding `O=C(OCc1ccccc1)N1CCN(C(=O)c2cc3cc(Br)ccc3[nH]2)CC1` [CBK154991], the viability at 28.5 h, 10 µM turned out to be 97.5%.

Turning to `CCc1ccc(CNC(=O)Cn2nnc(-c3ccc(CNC4CCC4)cc3)n2)cc1` [CBK155006T], the viability at 28.5 h, 10 µM came to 111%.

On to `CCc1ccc(CNC(=O)Cn2nnc(-c3ccc(CNCCc4ccc(OC)c(OC)c4)cc3)n2)cc1` [CBK155008T], for which the viability at 28.5 h, 10 µM was determined as 77.2%.

As for `CS(=O)(=O)c1ccc(CN2C(=O)CC3(CCN(C(=O)c4ccc([N+](=O)[O-])cc4)CC3)C2=O)cc1` [CBK155019], the viability at 28.5 h, 10 µM came to 99%. Consider `COc1cccc(C(=O)N2CCC(NC(=O)c3ccc(C(F)(F)F)cc3)CC2)c1` [CBK155022], for which the viability at 28.5 h, 10 µM was found to be 104%. On to `COc1cccc(C(=O)N2CCC(NC(=O)c3ccccc3C(F)(F)F)CC2)c1` [CBK155024], for which the viability at 28.5 h, 10 µM was determined as 99.4%. Under `COc1cccc(C(=O)N2CCC(NC(=O)c3cc(F)ccc3F)CC2)c1` [CBK155026] stands 99.4%; under `COc1cccc(C(=O)N2CCC(NC(=O)c3csc(-c4ccccc4)n3)CC2)c1` [CBK155030], 90.4%. Under `CN(C)C(=O)c1ccc(-c2ccc(OC3CCN(C(=O)CCc4cccnc4)CC3)nc2)cc1` [CBK155049] stands 93.3%; under `O=C(O)c1cccc(NS(=O)(=O)c2ccc(F)cc2F)c1` [CBK155084], 95.4%.
